Test results reported in patent publication US5238838A (Degussa Aktiengesellschaft, priority 1991, dated 1993).
Several values for one entry are separate records, joined by “and”; a condition that tells them apart may be missing. Equal entries are not always repeated. Entries after “also recorded” stand apart in the source; their conditions may differ. Structures can show the parent of a compound that is named as a salt. Where two headings read alike, the source gives them in different places. Where a SMILES comes first, the peptide text is derived from it.

How the values were obtained:
[1] = system: L-carnitine amidase; test: Test for the induction of L-carnitine amidase; assay type: cell-based, strain DSM 6230; settings: for Activity (mU/mg) / Activity (mU/ml): 5 g/l of the substance as inductor, 36 h, L-carnitine amide as substrate; for Induction of L-carnitine amidase (in words): strain DSM 6230
Protocol: (§1) In this test, various substances were examined for their induction action. At the same time, the growth on these compounds was followed. The medium used was a minimum medium with 1.0 g/l instead of 0.5 g/l yeast extract, to which 5 g/l of the substance to be tested were added in each instance. The culture without inductor contained 5 g/l yeast extract. All tests were carried out with 20 ml shaking cultures which were incubated 36 h at 30° C. and 120 rpms in a rotating [round]shaking machine. These cultures were inoculated with 1% of an initial culture of strain DSM 6230. L-carnitine amide was used as substrate for the enzyme test.
(§2) At the same time, the growth of the bacteria was followed in these carnitine amide concentrations. The culture conditions corresponded to those in example 3.

[2] = system: strain DSM 6230; test: Growth of strain DSM 6230 on the test substances (OD660); assay type: cell-based; settings: for OD660: 5 g/l of the substance in minimum medium with 1.0 g/l yeast extract, 36 h, 30° C.; for Growth of the strain on the substance (in words): strain DSM 6230
Protocol: 1367 strains were isolated during the screening program. These strains were incubated in 100 ml Erlenmeyer flasks containing 20 ml of the particular enrichment medium in a rotary agitator at 30° C. and 120 rpms. The optical density at 660 nm was taken as an indication for the cell growth.
as §1, §2

[3] = system: L-carnitine amidase; test: Substrate spectrum of L-carnitine amidase; assay type: biochemical, strain DSM 6230; settings: substrate 50 mM; 30° C.; 100 mM potassium phosphate buffer pH 8
Protocol: The enzyme test was carried out at 30° C. in 100 mM potassium phosphate buffer pH 8. The substrate concentration was 50 mM.

[4] = system: L-carnitine amidase;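 also: additives put into the enzyme mixture before substrate, reaction then initiated by substrate addition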
Protocol: In order to test the influence of various additives on the enzyme activity, they were added to the test batches without substrate in a final concentration of 1 mM and 10 mM in each instance. The reaction batches were first incubated for 45 min. at 30° C. before the reaction was started by adding substrate solution.

[5] = carnitine amide concentration 0.5 g/l
[6] = carnitine amide concentration 1.0 g/l
[7] = carnitine amide concentration 2.0 g/l
[8] = carnitine amide concentration 3.0 g/l
[9] = carnitine amide concentration 5.0 g/l
[10] = carnitine amide concentration 10.0 g/l
[11] = carnitine amide concentration 15.0 g/l
[12] = carnitine amide concentration 20.0 g/l
[13] = carnitine amide concentration 25.0 g/l
[14] = additive 1 mM, 45 min. preincubation at 30° C.
[15] = additive 10 mM, 45 min. preincubation at 30° C.

## C[N+](C)(C)CC(O)CC(N)=O (racemic) [DL-carnitine amide]
[1]
  Activity (mU/mg): 1673 mU/mg
  Activity (mU/ml): 8867 mU/ml
[1]; [5]
  amidase activity (U/ml): 0.7 U/ml
[1]; [6]
  amidase activity (U/ml): 2.4 U/ml
[1]; [7]
  amidase activity (U/ml): 6.1 U/ml
[1]; [8]
  amidase activity (U/ml): 7.3 U/ml
[1]; [9]
  amidase activity (U/ml): 8.9 U/ml
[1]; [10]
  amidase activity (U/ml): 8.6 U/ml
[1]; [11]
  amidase activity (U/ml): 7.3 U/ml
[1]; [12]
  amidase activity (U/ml): 7.1 U/ml
[1]; [13]
  amidase activity (U/ml): 6.7 U/ml
[2]
  OD660: 2.7
  Growth of the strain on the substance (in words): Good growth
[2]; [5]
  OD660 nm: 1.1
[2]; [6]
  OD660 nm: 1.3
[2]; [7]
  OD660 nm: 1.7
[2]; [8]
  OD660 nm: 2.0
[2]; [9]
  OD660 nm: 2.8
[2]; [10]
  OD660 nm: 3.9
[2]; [11]
  OD660 nm: 3.7
[2]; [12]
  OD660 nm: 3.6
[2]; [13]
  OD660 nm: 3.5

## C[N+](C)(C)CC(O)CC#N (racemic) [DL-carnitine nitrile]
[1]
  Activity (mU/mg): 88 mU/mg
  Activity (mU/ml): 221 mU/ml
[2]
  OD660: 0.8

## C[N+](C)(C)CC(O)CC(=O)[O-] (racemic) [DL-carnitine]
[1]
  Activity (mU/mg): 1255 mU/mg
  Activity (mU/ml): 5773 mU/ml
[2]
  OD660: 2.5
  Growth of the strain on the substance (in words): Good growth

## C[C@@H](O)[C@H](N)C(N)=O [1-Thr-NH2]
[3]
  Rel. activity (%): 0%

## OCCS [2-mercaptoethanol]
[4]; [14]
  Enzyme activity (%): 100%
[4]; [15]
  Enzyme activity (%): 101%

## CC=O [Acetaldehyde]
[4]; [14]
  Enzyme activity (%): 83%
[4]; [15]
  Enzyme activity (%): 81%

## O=[N+]([O-])[O-].[Ag+] [AgNO3]
[4]; [14]
  Enzyme activity (%): 65%

## [Ba+2].[Cl-].[Cl-] [BaCl2]
[4]; [14]
  Enzyme activity (%): 102%
[4]; [15]
  Enzyme activity (%): 105%

## [Ca+2].[Cl-].[Cl-] [CaCl2]
[4]; [14]
  Enzyme activity (%): 103%
[4]; [15]
  Enzyme activity (%): 90%

## [Cl-].[Cl-].[Co+2] [CoCl2]
[4]; [14]
  Enzyme activity (%): 90%
[4]; [15]
  Enzyme activity (%): 76%
[4]; concentration of 10 mM
  Reduction of the enzyme activity (in words): reduction of the enzyme activity

## [Cl][Cu][Cl] [CuCl2]
[4]; [14]
  Enzyme activity (%): 70%
[4]; [15]
  Enzyme activity (%): 54%

## N[C@@H]1CON=C1O [Cycloserine]
[4]; [14]
  Enzyme activity (%): 96%
[4]; [15]
  Enzyme activity (%): 97%

## NC(=O)[C@H](N)Cc1ccccc1 [D-Phe-NH2]
[3]
  Rel. activity (%): 0%

## CC(C)C[C@@H](N)C(N)=O [D-leucine amide]
[1]
  Activity (mU/mg): 81 mU/mg
  Activity (mU/ml): 170 mU/ml
[2]
  OD660: 0.8

## C[N+](C)(C)CC(=O)CC(=O)[O-] [Dehydrocarnitine]
[1]
  Activity (mU/mg): 279 mU/mg
  Activity (mU/ml): 837 mU/ml
  Induction of L-carnitine amidase (in words): induced; also recorded: Inductors; also recorded: induce the enzyme
[2]
  OD660: 0.8
  Growth of the strain on the substance (in words): can not be metabolized or are metabolized very poorly

## CCC(CC)(C(=O)O)C(=O)O [Diethyl malonic acid]
[4]; [14]
  Enzyme activity (%): 92%
[4]; [15]
  Enzyme activity (%): 68%
[4]; concentration of 10 mM
  Reduction of the enzyme activity (in words): reduction of the enzyme activity

## O=C(O)c1cc(SSc2ccc([N+](=O)[O-])c(C(=O)O)c2)ccc1[N+](=O)[O-] [Dinitrodithiodibenzoic acid]
[4]; [14]
  Enzyme activity (%): 34%

## CCN1C(=O)C=CC1=O [Ethyl maleinimide]
[4]
  Enzyme activity (%): 99%
[4]; [14]
  Enzyme activity (%): 100%

## [Cl][Fe][Cl] [FeCl2]
[4]; [14]
  Enzyme activity (%): 86%
[4]; [15]
  Enzyme activity (%): 57%

## [Cl][Fe]([Cl])[Cl] [FeCl3]
[4]; [14]
  Enzyme activity (%): 87%
[4]; [15]
  Enzyme activity (%): 46%

## NCC(=O)NCC(N)=O [Gly-Gly-NH2]
[3]
  Rel. activity (%): 0%

## C[N+](C)(C)CC(=O)[O-] [Glycine betaine]
[1]
  Activity (mU/mg): 33 mU/mg
  Activity (mU/ml): 183 mU/ml
[2]
  OD660: 2.9
  Growth of the strain on the substance (in words): Good growth

## [Cl][Hg][Cl] [HnCl2]
[4]; [14]
  Enzyme activity (%): < 1%

## O=C(O)CI [Iodoacetate]
[4]
  Enzyme activity (%): 97% and 72%
  Reduction of the enzyme activity (in words): reduction of the enzyme activity

## C[C@H](N)C(N)=O [L-Ala-NH2]
[3]
  Rel. activity (%): 0%

## N=C(N)NCCC[C@H](N)C(N)=O [L-Arg-NH2]
[3]
  Rel. activity (%): 0%

## NC(=O)C[C@H](N)C(N)=O [L-Asn-NH2]
[3]
  Rel. activity (%): 0%

## NC(=O)[C@H](Cc1ccccc1)NC(=O)[C@@H](N)CC(=O)O [L-Asp-L-Phe-NH2] (H-Asp-Phe-NH2)
[3]
  Rel. activity (%): 0%

## C[N+](C)(C)C[C@H](O)CC(=O)[O-] [L-carnitine, 3-hydroxy-4-trimethylaminobutyrate]
[1]
  Induction of L-carnitine amidase (in words): induced; also recorded: Inductors

## [Cl-].[Cl-].[Mg+2] [MgCl2]
[4]; [14]
  Enzyme activity (%): 96%
[4]; [15]
  Enzyme activity (%): 88%

## [Cl][Mn][Cl] [MnCl2]
[4]; [14]
  Enzyme activity (%): 89%
[4]; [15]
  Enzyme activity (%): 76%
[4]; concentration of 10 mM
  Reduction of the enzyme activity (in words): reduction of the enzyme activity

## Cc1ccc(S(=O)(=O)N[C@@H](CCCCN)C(=O)CCl)cc1 [Na-tosyl-L-lysyl-chloromethane hydrochloride]
[4]; [14]
  Enzyme activity (%): 84%
[4]; [15]
  Enzyme activity (%): 73%
[4]; concentration of 10 mM
  Reduction of the enzyme activity (in words): reduction of the enzyme activity

## [F-].[Na+] [NaF]
[4]; [14]
  Enzyme activity (%): 88%
[4]; [15]
  Enzyme activity (%): 78%
[4]; concentration of 10 mM
  Reduction of the enzyme activity (in words): reduction of the enzyme activity

## [N-]=[N+]=[N-].[Na+] [NaN3]
[4]; [14]
  Enzyme activity (%): 85%
[4]; [15]
  Enzyme activity (%): 82%

## CN(C)C(=O)Oc1cccc([N+](C)(C)C)c1 [Neostigmine bromide]
[4]; [14]
  Enzyme activity (%): 100%
[4]; [15]
  Enzyme activity (%): 94%

## [Cl][Ni][Cl] [NiCl2]
[4]; [14]
  Enzyme activity (%): 80%
[4]; [15]
  Enzyme activity (%): 79%

## NC(=O)c1cccnc1 [Nicotinamide]
[1]
  Activity (mU/mg): 28 mU/mg
  Activity (mU/ml): 55 mU/ml
[2]
  OD660: 0.7

## Cl.N=C(N)c1ccc(N)cc1 [Para-amino benzamidine hydrochloride]
[4]; [14]
  Enzyme activity (%): 88%
[4]; [15]
  Enzyme activity (%): 99%

## O=C(O)c1cc[c]([Hg][OH])cc1 [Para-hydroxymercuribenzoate]
[4]; [14]
  Enzyme activity (%): 51%

## c1cnc2c(c1)ccc1cccnc12 [Phenanthroline]
[4]; [14]
  Enzyme activity (%): 89%
[4]; [15]
  Enzyme activity (%): 82%

## O=S(=O)(F)Cc1ccccc1 [Phenylmethane sulfonylfluoride (PMSF), Phenylmethane sulfonylfluoride]
[4]; [14]
  Enzyme activity (%): 23%
[4]; [15]
  Enzyme activity (%): 2%

## N[C@@H](CCC(=O)N[C@@H](CS)C(=O)NCC(=O)O)C(=O)O [Red. glutathione]
[4]
  Enzyme activity (%): 97% and 92%
  Reduction of the enzyme activity (in words): reduction of the enzyme activity

## O=C(O)CN(CCN(CC(=O)O)CC(=O)O)CC(=O)O [Titriplex III (EDTA)]
[4]
  Enzyme activity (%): 93% and 73%
  Reduction of the enzyme activity (in words): reduction of the enzyme activity

## [Cl-].[Cl-].[Zn+2] [ZnCl2]
[4]; [14]
  Enzyme activity (%): 6%

## C[N+](C)(C)CCCC(=O)[O-] [butyrobetaine, γ-butyrobetaine]
[1]
  Activity (mU/mg): 566 mU/mg
  Activity (mU/ml): 963 mU/ml
  Induction of L-carnitine amidase (in words): induced; also recorded: Inductors; also recorded: induce the enzyme
[2]
  OD660: 0.7
  Growth of the strain on the substance (in words): can not be metabolized or are metabolized very poorly

## CC(C)CC(=O)C(=O)O [α-ketoisocaproic acid]
[4]; [14]
  Enzyme activity (%): 92%
[4]; [15]
  Enzyme activity (%): 90%
